Data set [1] concerns patients with steroid-refractory acute or chronic GVHD. As to conditions: 95 patients, salvage therapy, including lung GVHD; cited from earlier work.
Data set [2] deals with hospitalized patients with COVID-19. The settings on record: in combination with remdesivir versus placebo with remdesivir, within 29 days after initiating treatment; cited from earlier work.
A short description of a further data set: Lung S9 metabolism. In kind it is in vitro ADME, human. As to conditions: for Compound Remaining at 60 min: human lung S9, 1 μM compound, 1 mg/mL protein, NADPH and PAPS; for Sulfate Appearance: human lung S9, qualitative, O-sulfate metabolite peak. The procedure:
The in vitro metabolic stability of compounds 1 and C-1 were evaluated in human lung S9 fraction (1 μM compound; 1 mg/mL S9 protein). The time 0, 15, 30, and 60 minute samples were analyzed for parent compound by high resolution LC-MS/MS. Lung S9 fractions from human (lot 1410245) were purchased from XenoTech LLC (Lenexa, Kans.). NADPH (Sigma Aldrich, N1630) and 3-phosphoadenosine 5-phosphosulfate (PAPS) (Sigma Aldrich, A1651) were purchased from Sigma Aldrich (St. Louis, Mo.). Acetonitrile and water were obtained from VWR (Radnor, Pa.) and were of HPLC grade or better. Raloxifene and formic acid was purchased from Sigma Aldrich (St. Louis, Mo.). Lung S9 incubations were performed in a water bath at 37° C. in a 96-well polypropylene plate. Lung S9 solutions consisted of 100 mM potassium phosphate buffered to pH 7.4 (BD Biosciences, Woburn, Mass.) supplemented with 1 mM NADPH (Sigma-Aldrich, St. Louis, Mo.), 3 mM magnesium chloride (Sigma Aldrich, M1028) and in the presence of 100 μM PAPS (Sigma-Aldrich, St. Louis, Mo.) cofactor, with final incubation protein concentrations of 1 mg/mL. 10 mM DMSO stocks of Raloxifene (n=1) and compound (n=1) were diluted in buffer and spiked into the incubations to yield 1 μM substrate concentrations ([…]). Incubation volumes consisted of 400 μL and time points were taken at 0, 15, 30, and 60 minutes by the removal of a 70 μL aliquot and dilution into 140 μL acetonitrile (0% formic acid). All samples were centrifuged at 2250 g for 10 minutes at 5° C. Supernatant (50 μL) was taken from the centrifuged samples and diluted into 100 μL HPLC water containing internal standard. The samples were run on a Dionex Ultimate 3000 Auto sampler and analyzed using a Thermo Q-Exactive High Resolution Mass Spectrometer (Thermo, Waltham, Mass.) in Full Scan mode in conjunction with an Atlantis T3 column 3 μM-2.1×50 mm (Waters Inc., 186003717). Mobile Phase A consisted of Water+0.2% formic acid and Mobile Phase B consisted of acetonitrile+0.2% formic acid. Peak integration was accomplished using Gubbs GMSU software (Gubbs Inc., Alpharetta, Ga.). For each sample, peak area ratios were calculated by dividing the analyte peak area by the internal standard peak area. For each incubation, the peak area ratios of the analytes in each t0 was set to 100%, and the peak areas ratios from the 60-minute samples were converted to percentages remaining relative to the corresponding t0. Determination of sulfate metabolite formation was made qualitatively by observation of early-eluting peak in the parent ion channel which, based on historical internal data, corresponded to the O-sulfate metabolite of each parent compound.

The test system of data set [3] is IL-13 induced pSTAT6 in lung tissue. Briefly: Murine model of IL-13 induced pSTAT6 induction in lung tissue. In kind it is in vivo. As to conditions: mouse lung, oral aspiration 1 mg/mL 50 μL, IL-13 challenge 4 h after dose. The protocol:
IL-13 binds to cell surface receptors activating members of the Janus family of kinases (JAK) which then phosphorylate STAT6 and subsequently activates further transcription pathways. In the described model, a dose of IL-13 was delivered locally into the lungs of mice to induce the phosphorylation of STAT6 (pSTAT6) which is then measured as the endpoint.
Activity in the model is evidenced by a decrease in the level of pSTAT6 present in the lungs of treated animals at 5 hours compared to the vehicle treated, IL-13 challenged control animals. The difference between the control animals which were vehicle-treated, IL-13 challenged and the control animals which were vehicle-treated, vehicle challenged dictated the 0% and 100% inhibitory effect, respectively, in any given experiment.

Data set [4] can be described thus: Pharmacokinetics in plasma and lung in mouse. As to conditions: single oral aspiration, 0.2 mg/mL 50 μL. In kind it is in vivo. The protocol: Plasma and lung concentrations of test compound and ratio thereof were determined in the following manner. BALB/c mice from Charles River Laboratories were used in the assay. […] At various time points (typically 0.167, 2, 6, 24 hr) post dosing, blood samples were removed via cardiac puncture and intact lungs were excised from the mice.

Data set [5] in a line: Stability study at accelerated temperature and relative humidity (HPLC). In kind it is physicochemical. As to conditions: samples of Form I.
Data set [6] can be described thus: Dynamic moisture sorption assessment. The data set is classed as physicochemical. The procedure:
Dynamic moisture sorption (DMS) measurement was performed using a VTI atmospheric microbalance, SGA-100 system (VTI Corp., Hialeah, Fla. 33016). A weighed sample was used and the humidity was lowest possible value (close to 0% RH) at the start of the analysis. The DMS analysis consisted of an initial drying step (˜0% RH) for 16 hours, followed by two cycles of sorption and desorption with a scan rate of 5% RH/step over the humidity range of 5% RH to 90% RH. The DMS run was performed isothermally at 25° C.

The structures appear in SMILES notation.

In the case of `N#CC[C@H](C1CCCC1)n1cc(-c2ncnc3[nH]ccc23)cn1` [ruxolitinib], the “clinical response in GVHD patients” value in data set [1] is reported as “complete or partial response to ruxolitinib in the majority of patients”.
Turning to `CCS(=O)(=O)N1CC(CC#N)(n2cc(-c3ncnc4[nH]ccc34)cn2)C1` [baricitinib], the time to recovery result in data set [2] is listed as “reduce time to recovery”.
As to `CCc1cc(O)c(F)cc1-c1ccc2c(-c3nc4c([nH]3)CN(C(C)C)[C@H](C(=O)N3CC(N(C)C)C3)C4)n[nH]c2c1` [Compound C-1, (S)-(3-(dimethylamino)azetidin-1-yl)(2-(6-(2-ethyl-5-fluoro-4-hydroxyphenyl)-1H-indazol-3-yl)-5-isopropyl-4,5,6,7-tetrahydro-3H-imidazo[4,5-c]pyridin-6-yl)methanone, reference compound], in “Lung S9 metabolism”, the “Compound Remaining at 60 min” value is given as 6% and the “Sulfate Appearance” value is “Yes”.
For `CCc1cc(O)ccc1-c1ccc2c(-c3nc4c([nH]3)CN(C(C)C)[C@H](C(=O)N3CC(N(C)C)C3)C4)n[nH]c2c1` [Compound 1, (S)-(3-(dimethylamino)azetidin-1-yl)(2-(6-(2-ethyl-4-hydroxyphenyl)-1H-indazol-3-yl)-5-isopropyl-4,5,6,7-tetrahydro-3H-imidazo[4,5-c]pyridin-6-yl)methanone], the “pSTAT6 inhibition at 5 hours” value in data set [3] stood at 75. For the same compound, the “sulfation metabolism compared to fluoro analog C-1” value in the data set “Lung S9 metabolism” (human lung S9) is listed as “significantly less sulfation metabolism”. The “Compound Remaining at 60 min” value in “Lung S9 metabolism” is on record as 81%. Besides, in the data set “Lung S9 metabolism”, the “Sulfate Appearance” value is “Yes”. Further, in data set [4], the “Lung Tissue AUC(0-24)” value came to 54.5 µg·h/g. Also, the “Compound 1 content by HPLC” value in data set [5] (T = 0) is on record as 97.5% a/a; in data set [5] (T = 1 month, 40° C./75% RH) it was 97.5% a/a; in data set [5] (T = 3 month, 25° C./60% RH), 97.6% a/a; in data set [5] (T = 3 month, 40° C./75% RH) it was 97.5% a/a.
Consider `CCc1cc(O)ccc1-c1ccc2c(-c3nc4c([nH]3)CN(C(C)C)[C@H](C(=O)N3CC(N(C)C)C3)C4)n[nH]c2c1` [Form I, (S)-(3-(dimethylamino)azetidin-1-yl)(2-(6-(2-ethyl-4-hydroxyphenyl)-1H-indazol-3-yl)-5-isopropyl-4,5,6,7-tetrahydro-3H-imidazo[4,5-c]pyridin-6-yl)methanone hydrate Form I], for which, in data set [6] (dynamic moisture sorption, 25° C.), the hygroscopicity result is “moderately hygroscopic”. Further, the total moisture uptake result in data set [6] (relative humidity between 0% and 90% at room temperature) is “about 5.3%”.
